Structures can show the parent of a compound that is named as a salt.

The first experiment deals with adults with ADHD.
Experiment: not given
The settings on record: person, ADHD; 37.5 mg oxycarbamazepine added to dexamphetamine 40 mg and 'sodium to operate' 400 mg daily. The procedure: In the clinical setting a number of adults with ADHD experienced a combination therapy of stimulant medication (dexamphetamine) in combination with sodium valproate (VPA). The initial dosages used were from 15 to 70 mg/day of dexamphetamine and from 100 to 700 mg/day of VPA (Epilim) (=approximately 2 to 10 mg/kg/day).
The determination of the dose for the dexamphetamine was undertaken in a clinical sensitive open label manner. The dose was titrated upwards dependent on the clinical response and the freedom from side-effects. The dose range was between 15 and 70 mg a day. The frequency of the dosing also varied dependent upon the clinical response. The usual dose interval was between two to four hours. This dosing adjustment took place prior to the commencement of the sodium valproate. The sodium valproate medication was initiated once a day at 50 mg tablet or elixir and titrated upwards dependent on response, but not more than one increase every three days. The dose was given as a once or twice a day regime. During the titration phase, if clinically possible, no other adjustments to the pharmacotherapy were undertaken.
For the compound `NC(=O)N1c2ccccc2CC(=O)c2ccccc21` [Oxcarbazepine], the “clinical outcome (case)” value is given as “significant improvement in their cognitive functioning”.

The same experiment, now with this note: person; oxycarbamazepine dose increased to 75 mg.
Regarding `NC(=O)N1c2ccccc2CC(=O)c2ccccc21` [Oxcarbazepine], the “clinical outcome (case)” value is recorded as “improved again”.

The same experiment, now with this note: person; switched to carbamazepine.
`NC(=O)N1c2ccccc2C=Cc2ccccc21` [Carbamazepine]: the “clinical outcome (case), compared with oxycarbamazepine” value is recorded as “less effective”.

The next experiment deals with individuals with developmental dyspraxia / poor coordination. In words: Treatment of developmental dyspraxia, clinical observation. It counts as in vivo, human. Particulars: person, ADHD; dexamphetamine 25 mg daily augmented with atomexetine 60 mg and sodium valproate 150 mg. The source says: Many of the individuals treated at this clinic, with a diagnosis of ADHD and/or pervasive development disorder such Asperger's Syndrome or autism also present with symptoms consistent with a diagnosis of a developmental coordination disorder. They are often described as ‘unco’ (unco-ordinated) by their peers and experience victimization, poor self-esteem and frustration as a consequence of their poor coordination. […] Individuals have described a sense of having more time to coordinate movements and to understand and integrate their own activity appropriately within a team sport such as soccer, which has previously eluded them. Individuals have felt frustration at being able to practise repeatedly an activity or skill only to be unable to put it into practice when required, within the play of a match. It is proposed that individuals were previously unable to process and plan their own coordination but remain aware of the general activity in which they were participating.
Turning to `CNCC[C@@H](Oc1ccccc1C)c1ccccc1` [atomexetine, (3R)—N-methyl-3-(2-methylphenoxy)-3-phenyl-propan-1-amine], the “clinical outcome (case)” value was “Significant improvement in psychosocial functioning”.

The subject of a further experiment is mood stabilisation or epileptic symptoms or events.
Experiment: not given
The settings on record: in vivo; cited from earlier work.
As for `NC(=O)N1c2ccccc2C=Cc2ccccc21` [Carbamazepine], the “typical dose for treating epileptic seizures” value is recorded as 400 to 800 mg/day.

Staying with this experiment, now noted: usual minimum anti-convulsant dose per day; cited from earlier work.
As for `CCC1(c2ccccc2)C(=O)NC(=O)NC1=O.CNC(C)CC1CCCCC1` [Barbexaclone], the “Minimum Dose/day effective for mood stabilisation or treatment of epileptic symptoms or events” value (shortened to “Minimum Dose/day effective”) was 200 mg in divided doses.
`NC(=O)OCC(COC(N)=O)c1ccccc1` [Felbamate]: the “Minimum Dose/day effective” value is recorded as 1200 mg.
Turning to `CCN1C(=O)NC(c2ccccc2)C1=O` (stereo not shown) [Ethotoin], the “Minimum Dose/day effective” value is reported as 1000 mg.
`COC[C@@H](NC(C)=O)C(=O)NCc1ccccc1` [Lacosamide]: the “Minimum Dose/day effective” value is listed as 200 mg.
Take `NS(=O)(=O)c1ccc(N2CCCCS2(=O)=O)cc1` [Sultiame]: the “Minimum Dose/day effective” value is recorded as 200 mg.
Take `NCC1(CC(=O)O)CCCCC1` [Gabapentin, 2-[1-(aminomethyl)cyclohexyl]acetic acid]: the “Minimum Dose/day effective” value is 900 mg.
Take `CN1C(=O)CC(C)(c2ccccc2)C1=O` (stereo not shown) [Methsuximide]: the “Minimum Dose/day effective” value is reported as 300 mg.
With `CCC(C(=O)NC(N)=O)c1ccccc1` (stereo not shown) [Pheneturide], the “Minimum Dose/day effective” value is recorded as 600 mg.
Consider `CC(C)C[C@H](CN)CC(=O)O` [Pregabalin, (S)-3-(aminomethyl)-5-methylhexanoic acid], for which the “Minimum Dose/day effective” value is reported as 300 mg.
`NS(=O)(=O)Cc1noc2ccccc12` [Zonisamide]: the “Minimum Dose/day effective” value is 200 mg.
Turning to `CCC1(c2ccccc2)NC(=O)N(C)C1=O` (stereo not shown) [Mephenytoin], the “Minimum Dose/day effective” value is 200 mg.
For the compound `CCC1(c2ccc(N)cc2)CCC(=O)NC1=O` (stereo not shown) [Aminoglutethimide], the “Minimum Dose/day effective” value is 125 mg.
As for `O=C1NC(c2ccccc2)(c2ccccc2)C(=O)N1COP(=O)(O)O` [Fosphenytoin Sodium], the “Minimum Dose/day effective” value is listed as 10 mg/kg.
For the compound `C=CC(N)CCC(=O)O` (stereo not shown) [Vigabatrin], the “Minimum Dose/day effective” value is given as 1000 mg.
On to `CC[C@@H](C(N)=O)N1CCCC1=O` [Levetiracetam], for which the “Minimum Dose/day effective” value is reported as 1000 mg.
With `NC(=O)N1c2ccccc2C=Cc2ccccc21` [Carbamazepine], the “Minimum Dose/day effective” value is listed as 400 mg.
For `CN1C(=O)CC(c2ccccc2)C1=O` (stereo not shown) [Phensuximide], the “Minimum Dose/day effective” value is recorded as 1000 mg.
Regarding `CCC[C@@H]1CC(=O)N([C@@H](CC)C(N)=O)C1` [Brivaracetam], the “Minimum Dose/day effective” value is 100 mg.
`N#Cc1ccccc1-c1cc(-c2ccccn2)cn(-c2ccccc2)c1=O` [Perampanel]: the “Minimum Dose/day effective” value is 2 mg.
For `Cc1ccsc1C(=CCCN1CCC[C@@H](C(=O)O)C1)c1sccc1C` [Tiagabine Hydrochloride], the “Minimum Dose/day effective” value is given as 30 mg.
`NC(=O)NC(=O)Cc1ccccc1` [Phenacemide]: the “Minimum Dose/day effective” value is listed as 500 mg.
For `CCC1(c2ccccc2)C(=O)NCNC1=O` [Primidone], the “Minimum Dose/day effective” value is reported as 750 mg.
With `CCC1(C)CC(=O)NC1=O` (stereo not shown) [Ethosuximide], the “Minimum Dose/day effective” value is 1000 mg.
Take `COC1=CC(=O)OC1C(O)c1ccccc1Cl` (stereo not shown) [Losigamone]: the “Minimum Dose/day effective” value is 1500 mg.
Regarding `Nc1nnc(-c2cccc(Cl)c2Cl)c(N)n1` [Lamotrigine, 3,5-diamino-6-(2,3-dichlorophenyl)-1,2,4-triazine], the “Minimum Dose/day effective” value is listed as 100 mg.
Take `CN1C(=O)OC(C)(C)C1=O` [Trimethadione]: the “Minimum Dose/day effective” value was 900 mg.
Turning to `CCN1C(=O)OC(C)(C)C1=O` [Ethadione], the “Minimum Dose/day effective” value was 1000 mg.
`O=C1CN=C(c2ccccc2Cl)c2cc([N+](=O)[O-])ccc2N1` [Clonazepam]: the “Minimum Dose/day effective” value is on record as 1 mg.
For the compound `CCC1(c2ccccc2)NC(=O)N(C)C1=O` (stereo not shown) [Methoin], the “Minimum Dose/day effective” value is recorded as 1000 mg.
On to `CCC1(C)OC(=O)N(C)C1=O` (stereo not shown) [Paramethadione], for which the “Minimum Dose/day effective” value was 300 mg.
As for `NC(=O)N1c2ccccc2CC(=O)c2ccccc21` [Oxcarbazepine], the “Minimum Dose/day effective” value is reported as 600 mg.

The experiment is the same for the next values; noted with them: usual minimum anti-convulsant dose; cited from earlier work.
As for `CN1C(=O)CC(=O)N(c2ccccc2)c2cc(Cl)ccc21` [Clobazam], the “Minimum Dose/day effective” value was 5 mg/kg daily.

These data come from patent US10028971B2, “Compositions and methods for treating psychiatric disorders” (GOSFORTH CENTRE (HOLDINGS) PTY LTD., priority 2008, dated 2018).
